Structures can show the parent of a compound that is named as a salt.
Each compound was assayed on Hydractinia echinata (assay: Hydractinia echinata test system (HeTS): reduction of Cs+-induced metamorphosis of larvae). Details: Hydractinia echinata; MRC50 in mol/L = concentration for 50% decrease of metamorphosis vs control; larvae exposed 3 h with Cs+, read after 24 h; read-out: M: experimental Mlog(1/MRC50) (converted).
Type: in vivo
Description: The average (C) concentrations of these values were calculated too. The MRC50 value calculations (Chicu et al.) result from the graphical representation of the metamorphosis variation, M (%), (Y axis) function of the xenobiotic’s concentration (mol/L) (X axis), where the metamorphosis decreases with the rise of the xenobiotic’s concentration. Thus, the MRC50 value represents the xenobiotic’s concentration (mol/L) necessary for a 50% decrease of metamorphosis, with respect to control.
For each concentration of substance experiments were performed in triplicate and were repeated at least twice.
Colonies of H. echinata (Biologische Anstalt, Helgoland, Germany) were used to obtain eggs and larvae. The culture medium was artificial seawater (980 mosmol, pH 8.2, 18 °C). In laboratory an artificial metamorphosis can be synchronically started by the introduction of Cs^+ ions or by using seawater without Mg^2+ ions; it then lasts only 24 h. Under the action of external stimulus of Cs^+ ions or Cs^+ ions together with the tested compounds, one part of larvae further lives as such and another one is metamorphosized to the polyp form. The evaluation of the influence of the tested substance is very clear this way, the proposed method being based on this aspect.
H. echinata larvae were exposed to seawater containing Cs^+ and simultaneously one of the test substances for 3 h. The percentage of animals that underwent metamorphosis (development into polyps) was determined after 24 h. […] We chose a concentration of inducers which caused about […] to three quarters of the larvae to metamorphose in order to have conditions which are highly sensitive against an inhibitory influence. […] This concentration was termed MRC50 (for Metamorphosis Reduction Concentration) and is similar to the effective EC50 concentration that gives half maximal effective response.
In the case of Nc1c(N=Nc2ccc([N+](=O)[O-])cc2)c(S(=O)(=O)O)cc2cc(S(=O)(=O)O)c(N=Nc3ccc(NC(=O)c4ccc(N=Nc5ccc(O)c(C(=O)O)c5)cc4)cc3)c(O)c12 [Compound 113, 5-[2-(4-{[4-(2-{8-Amino-1-hydroxy-7-[2-(4-nitrophenyl)diazen-1-yl]-3,6-disulfonaphthalen-2-yl}diazen-1-yl)-phenyl]carbamoyl}-phenyl)diazen-1-yl]-2-hydroxybenzoic acid], the EC50 was 112 µM. Nc1c(N=Nc2ccc([N+](=O)[O-])cc2C(=O)O)c(S(=O)(=O)O)cc2cc(S(=O)(=O)O)c(N=Nc3ccc(NC(=O)c4ccc(N=Nc5ccc(O)c(C(=O)O)c5)cc4)cc3)c(O)c12 [Compound 114, 5-[2-(4-{[4-(2-{8-Amino-7-[2-(2-carboxy-4-nitrophenyl)diazen-1-yl]-1-hydroxy-3,6-disulfonaphthalen-2-yl}diazen-1-yl)phenyl]-carbamoyl}phenyl)-diazen-1-yl]-2-hydroxybenzoic acid] showed an EC50 of 129 µM. Work on C=C(O)c1cc([N+](=O)[O-])ccc1N=Nc1c(N)ccc2c(O)c(N=Nc3ccc(NC(=O)c4ccc(N=Nc5ccc(O)c(C(=O)O)c5)cc4)cc3)c(S(=O)(=O)O)cc12 [Compound 115, 5-{2-[4-({4-[2-(6-Amino-1-hydroxy-5-{2-[2-(1-hydroxy-ethenyl)-4-nitro-phenyl]diazen-1-yl}-3-sulfonaphthalen-2-yl)diazen-1-yl]phenyl}-carbamoyl)phenyl]-diazen-1-yl}-2-hydroxybenzoic acid] yielded an EC50 of 138 µM. Work on Nc1ccc(N=Nc2ccc(NC(=O)c3ccc(N=Nc4c(S(=O)(=O)O)cc5cc(S(=O)(=O)O)c(N=Nc6ccccc6)c(O)c5c4N)cc3)cc2)c(N)c1 [Compound 116, 4-Amino-3-{2-[4-({4-[2-(2,4-diamino-phenyl)diazen-1-yl]phenyl}carbamoyl)-phenyl]diazen-1-yl}-5-hydroxy-6-(2-phenyl-diazen-1-yl)-naphthalene-2,7-disulfonic acid] yielded an EC50 of 166 µM. In the case of O=C(Nc1ccc(N=Nc2ccc(O)c(C(=O)Nc3ccccc3)c2)cc1)c1ccc(N=Nc2ccc(O)c(C(=O)Nc3ccccc3)c2)cc1 [Compound 117, 2-Hydroxy-5-{2-[4-(4-{2-[4-hydroxy-3-(phenylcarbamoyl)phenyl]diazen-1-yl}-benzamido)phenyl]-diazen-1-yl}-N-phenylbenzamide], the EC50 was 166 µM. In the case of O=C(Nc1ccc(N=Nc2c(S(=O)(=O)O)cc3cc(NC(=O)c4ccccc4)ccc3c2O)cc1)c1ccc(N=Nc2ccc(O)c(C(=O)Nc3ccccc3)c2)cc1 [Compound 118, 7-Benzamido-4-hydroxy-3-{2-[4-(4-{2-[4-hydroxy-3-(phenyl-carbamoyl)phenyl]diazen-1-yl}benzamido)-phenyl]diazen-1-yl}naphthalene-2-sulfonic acid], the EC50 was 224 µM. With O=C(Nc1ccc(N=Nc2c(S(=O)(=O)O)cc3cc(NC(=O)c4ccccc4)ccc3c2O)cc1)c1ccc(N=Nc2ccc(O)c(C(=O)O)c2)cc1 [Compound 119, 5-{2-[4-({4-[2-(6-Benzamido-1-hydroxy-3-sulfonaphthalen-2-yl)diazen-1-yl]-phenyl}carbamoyl)phenyl]diazen-1-yl}-2-hydroxybenzoic acid] the EC50 was 22.4 µM. Compound Nc1c(N=Nc2ccc(NC(=O)c3ccc(N=Nc4ccc(O)c(C(=O)Nc5ccccc5)c4)cc3)cc2)cc(S(=O)(=O)O)c2ccccc12 [Compound 120, 4-Amino-3-{2-[4-(4-{2-[4-hydroxy-3-(phenyl-carbamoyl)phenyl]diazen-1-yl}benzamido)phenyl]-diazen-1-yl}naphthalene-1-sulfonic acid] has an EC50 of 25.1 µM. With Nc1ccc2cc(S(=O)(=O)O)c(N=Nc3ccc(NC(=O)c4ccc(N=Nc5ccc(O)c(C(=O)Nc6ccccc6)c5)cc4)cc3)c(O)c2c1 [Compound 121, 6-Amino-4-hydroxy-3-{2-[4-(4-{2-[4-hydroxy-3-(phenyl-carbamoyl)phenyl]diazen-1-yl}benzamido)-phenyl]diazen-1-yl}naphthalene-2-sulfonic acid] the EC50 was 31.6 µM. Compound Nc1cc(S(=O)(=O)O)cc2cc(S(=O)(=O)O)c(N=Nc3ccc(NC(=O)c4ccc(N=Nc5ccc(O)c(C(=O)Nc6ccccc6)c5)cc4)cc3)c(O)c12 [Compound 122, 5-Amino-4-hydroxy-3-{2-[4-(4-{2-[4-hydroxy-3-(phenyl-carbamoyl)phenyl]-diazen-1-yl}-benzamido)phenyl]-diazen-1-yl}-naphthalene-2,7-disulfonic acid] has an EC50 of 31.6 µM. O=C(Nc1ccc(N=Nc2c(O)c(S(=O)(=O)O)cc3cc(S(=O)(=O)O)ccc23)cc1)c1ccc(N=Nc2ccc(O)c(C(=O)Nc3ccccc3)c2)cc1 [Compound 127, 3-Hydroxy-4-{2-[4-(4-{2-[4-hydroxy-3-(phenylcarbamoyl)phenyl]diazen-1-yl}-benzamido)phenyl]-diazen-1-yl}-naphthalene-2,7-disulfonic acid] gave an EC50 of 58.9 µM. In the case of O=C(Nc1ccc(N=Nc2c(O)ccc3ccccc23)cc1)c1ccc(N=Nc2ccc(O)c(C(=O)Nc3ccccc3)c2)cc1 [Compound 128, 2-Hydroxy-5-{2-[4-({4-[2-(2-hydroxynaphthalen-1-yl)diazen-1-yl]-phenyl}carbamoyl)-phenyl]diazen-1-yl}-N-phenylbenzamide], the EC50 was 53.7 µM.

Same assay, conditions: Hydractinia echinata; parent dye, Table 2; read-out: F(1+2+...)e experimental toxicity log(1/MRC50) (converted)
In the case of O=C(Nc1ccc(N=Nc2ccc(O)c(C(=O)Nc3ccccc3)c2)cc1)c1ccc(N=Nc2ccc(O)c(C(=O)Nc3ccccc3)c2)cc1 [Compound 117, 2-Hydroxy-5-{2-[4-(4-{2-[4-hydroxy-3-(phenylcarbamoyl)phenyl]diazen-1-yl}-benzamido)phenyl]-diazen-1-yl}-N-phenylbenzamide], the EC50 was 166 µM.

Same assay, conditions: MRC50 in mol/L = concentration for 50% decrease of metamorphosis vs control; larvae exposed 3 h with Cs+, read after 24 h
For O=C(Nc1ccc2c(O)c(N=Nc3ccccc3)c(S(=O)(=O)[O-])cc2c1)Nc1ccc2c(O)c(N=Nc3ccccc3)c(S(=O)(=O)[O-])cc2c1.[Na+].[Na+] [Compound 129, Direct Brilliant Orange], the “M: experimental Mlog(1/MRC50)” value was 3.65. With O=C(Nc1ccc2c(O)c(N=Nc3ccc(N=Nc4ccc(S(=O)(=O)[O-])cc4)cc3S(=O)(=O)[O-])c(S(=O)(=O)[O-])cc2c1)Nc1ccc2c(O)c(N=Nc3ccc(N=Nc4ccc(S(=O)(=O)[O-])cc4)cc3S(=O)(=O)[O-])c(S(=O)(=O)[O-])cc2c1.[Na+].[Na+].[Na+].[Na+].[Na+].[Na+] [Compound 132, Direct Red 80 (Saturn Rot F3B)] the “M: experimental Mlog(1/MRC50)” value was 3.80. With COc1cc(NC(=O)c2ccccc2)c(OC)cc1[N+]#N [Compound 135, Fast Blue RR Salt] the “M: experimental Mlog(1/MRC50)” value was 4.09. CCOc1cc(NC(=O)c2ccccc2)c(OCC)cc1[N+]#N.[Cl-] [Compound 136, Fast Blue BB Salt] was tested, and the “M: experimental Mlog(1/MRC50)” value was 4.17. In the case of Bordo Direct AN [Compound 81], the “M: experimental Mlog(1/MRC50)” value was 3.86. With Direct Black 32 [Compound 77] the “M: experimental Mlog(1/MRC50)” value was 3.89. For Fast Red B Salt [Compound 137], the “M: experimental Mlog(1/MRC50)” value was 5.25.

Same assay, conditions: in vivo
With COc1ccc(N)cc1 [p-Methoxy-aniline] the “F(1), F(2),... individual log(1/MRC50) toxicity value” was 3.32. With Nc1ccc([N+](=O)[O-])cc1 [p-NA, p-nitroaniline] the “F(1), F(2),... individual log(1/MRC50) toxicity value” was 2.85.

Source: PMC6270994, “The Hydractinia echinata Test-System. III: Structure-Toxicity Relationship Study of Some Azo-, Azo-Anilide, and Diazonium Salt Derivatives” (Molecules, 2014)
